{
  "source": "paper PMC9545474",
  "about": "“Anticancer Water‐Soluble Organoruthenium Complexes: Synthesis and Preclinical Evaluation” (Chembiochem, 2022)",
  "key": {"[1]": {"tested_on": "A2780cisR cisplatin-resistant ovarian cancer cells", "test": "24-hour MTT chemosensitivity assay with 72-hour recovery, A2780cisR", "format": "cell-based, human", "conditions": "for IC50: 24 h exposure, 72 h recovery, MTT, read-out: IC50 values ±SD, A2780cisR", "method": "(§1) Chemosensitivity studies were undertaken using a 24‐hour MTT assay, with a 72‐hour recovery period. The IC50 values were determined against ovarian A2780 (cisplatin‐sensitive) and A2780cisR (cisplatin‐resistant) cancer cell lines, non‐small‐cell lung H460 cancer cell line, and normal prostate PNT2 cell line, exposed to each of compounds 4–8, cisplatin or the phosphine ligands (Table 1 and S4, Figures S29–S31). […] This is unusual but can be related to solubility issues not visible for the naked eye and thus hindering its activity in cells. […] When tested on their own, the phosphine ligands are not active below 100 μM for all four cell lines. […] This therefore prevents comparison with the well‐known RAPTA family, and more especially with RAPTA−C which bears a PTA ligand and a p‐cym ligand, making this complex relatively similar in terms of geometry with complex 4.[21] […] This confirms the interest of the sulfur coordinating atom in terms of cytotoxicity for organoruthenium complexes.[23]\n(§2) Chemosensitivity assay: In vitro chemosensitivity tests were performed against A2780, A2780cisR, PNT2 and H460 cells. Cells were routinely maintained as monolayer cultures in RPMI 1640 medium supplemented with 10 % foetal calf serum, penicillin (100 I.U./mL) and streptomycin (100 μg/mL), sodium pyruvate (1 mM) and L‐glutamine (2 mM). For chemosensitivity studies, cells were seeded in 96‐well plates at a concentration of 7.5×10^3 cells per well and the plates were incubated for 24 h at 37 °C and a 5 % CO2 humidified atmosphere prior to drug exposure.\n(§3) Complexes were dissolved in either DMSO (complexes 4, 5, and 8) or PBS (complexes 6 and 7) to provide stock solutions which were further diluted with media to provide a range of final concentrations. Drug‐media solutions were added to cells (the final concentration of DMSO was less than 1 % (v/v) in all cases) and incubated for 24 h at 37 °C and a 5 % CO2 humidified atmosphere. The drug‐media solution was removed from the wells and the cells were washed with PBS (100 μL, twice) and 200 μL of complete fresh media were added to each well. The plates were further incubated for 72 h at 37 °C and a 5 % CO2 humidified atmosphere to allow for a period of recovery. 3‐(4,5‐dimethylthiazol‐2‐yl)‐2,5‐diphenyltetrazolium bromide (MTT) (40 μL, 2.5 mg/mL) was added to each well and plates were incubated for 2 h. All solutions were then removed and 100 μL of DMSO was added to each well in order to dissolve the purple formazan crystals. A Thermo Scientific Multiskan EX microplate photometer was used to measure the absorbance in each well at 570 nm. Cell survival was determined as the absorbance of treated cells divided by the absorbance of controls and expressed as a percentage. The IC50 values were determined from plots of % survival against drug concentration. Each experiment was repeated in triplicates of triplicates and a mean value was obtained and stated as IC50 (μM) ± SD. Untreated cells were used as a negative control, and cells treated with cisplatin were used as a positive control."}, "[2]": {"tested_on": "H460 non-small-cell lung cancer cells", "test": "24-hour MTT chemosensitivity assay with 72-hour recovery, H460", "format": "cell-based", "conditions": "for IC50: 24 h exposure, 72 h recovery, MTT, read-out: IC50 values ±SD, H460", "method": "as §1, §2, §3"}, "[3]": {"test": "Precipitation in drug-medium solutions", "format": "physicochemical"}, "[4]": {"tested_on": "PNT2 non-cancerous human prostate cells", "test": "24-hour MTT chemosensitivity assay with 72-hour recovery, PNT2", "format": "cell-based", "conditions": "24 h exposure, 72 h recovery, MTT; read-out: IC50 values ±SD, PNT2", "method": "as §1, §2, §3"}, "[5]": {"tested_on": "A2780 ovarian cancer cells", "test": "24-hour MTT chemosensitivity assay with 72-hour recovery, A2780", "format": "cell-based, human", "conditions": "for IC50: 24 h exposure, 72 h recovery, MTT, read-out: IC50 values ±SD, A2780", "method": "as §1, §2, §3"}, "[6]": {"tested_on": "A2780 cells", "test": "JC-10 mitochondrial membrane potential assay by flow cytometry", "format": "cell-based, human", "conditions": "A2780, 24 h, complexes at IC50, cisplatin 6.5 µM", "text": "A membrane potential sensitive fluorescent probe JC‐10 was used to determine whether the apoptosis induced by complexes 6 and 8 is accompanied by changes in the mitochondrial membrane potential (ΔΨm) of A2780 cells. JC‐10 aggregates inside mitochondria and emits orange fluorescence. Following membrane […], JC‐10 is disaggregated and this in turn reduces the orange fluorescence.\nFigure 8 Effect of complexes 6 and 8 on the mitochondrial membrane potential. […] The percentages of cells with depolarised mitochondrial membrane potential were assessed by flow cytometry after staining with JC‐10. The data are expressed as the means±SD of the three individual experiments.\nMitochondrial membrane potential assay: Analysis of the changes of mitochondrial potential in A2780 cells after exposure to complexes 6 and 8 was carried out using the JC‐10 mitochondrial membrane potential assay kit (abcam®) according to the manufacturer's instructions. Briefly, 1.0×10^6 cells per well were seeded in a 6‐well plate and incubated for 24 at 37 °C and a 5 % CO2 humidified atmosphere. […] Supernatants were removed by suction, and each well was washed with PBS before detaching the cells using trypsin. Staining of the samples was done in tubes protected from light, incubating for 30 min in the dark at room temperature. Samples were immediately analysed on a BD Accuri C6 Plus System Flow Cytometer, reading the reduction of fluorescence in the FL2 channel."}, "[7]": {"tested_on": "MCF-7 cell line", "parameters": "method as in PMID 27357845", "conditions": "read-out: EC50 against MCF-7 cell line; cited from earlier work"}, "[8]": {"tested_on": "H460 non-small-cell lung cancer cells", "parameters": "method as in PMID 32237195", "conditions": "read-out: IC50 values ±SD, H460; cited from earlier work"}, "[9]": {"tested_on": "A2780 ovarian cancer cells", "parameters": "method as in PMID 32237195", "conditions": "read-out: IC50 values ±SD, A2780; cited from earlier work"}, "[10]": {"tested_on": "non-immortalised lymphocytes", "parameters": "method as in PMID 33119178", "conditions": "cited from earlier work"}, "[11]": {"tested_on": "A2780cisR cisplatin-resistant ovarian cancer cells", "parameters": "method as in PMID 32237195", "conditions": "read-out: IC50 values ±SD, A2780cisR; cited from earlier work"}, "[12]": {"tested_on": "ovarian, colon, and lung cancer cell lines", "parameters": "method as in PMID 32237195", "conditions": "some ovarian; cited from earlier work"}},
  "note": "Where two headings read alike, the source gives them in different places.",
  "data": [
    {"smiles": "Cc1ccc(C(C)C)cc1.N#CC1=C(C#N)[S][Ru-]([P+]23CN4CN(CN(C4)C2)C3)[S]1", "note": "[Complex 4, (η^6‐p‐cymene)(PTA)Ru(Mnt)]", "values": [
      {"measurement": "IC50", "setting": "[1]", "result": "≥ 50", "unit": "µM"},
      {"measurement": "IC50", "setting": "[2]", "result": "≥ 50", "unit": "µM"},
      {"measurement": "Concentration above which the complex precipitates", "setting": "[3]", "result": "higher than 50 μM"},
      {"measurement": "IC50", "setting": "[4]", "result": "≥ 50", "unit": "µM"},
      {"measurement": "IC50", "setting": "[5]", "result": "≥ 50", "unit": "µM"}
    ]},
    {"smiles": "N.N.[Cl][Pt][Cl]", "note": "[Cisplatin, reference compound]", "values": [
      {"measurement": "IC50", "setting": "[1]", "result": "18 ± 0.6", "unit": "µM"},
      {"measurement": "Selectivity factor (cross-resistance, resistance factor RF)", "setting": "[1]; IC50 A2780cisR / IC50 A2780", "result": 2.8},
      {"measurement": "Selectivity index (SI), A2780cisR", "setting": "[1]; mean IC50 PNT2 / mean IC50 A2780cisR", "result": 0.67},
      {"measurement": "IC50", "setting": "[2]", "result": "4.5 ± 0.2", "unit": "µM"},
      {"measurement": "Selectivity index (SI), H460", "setting": "[2]; mean IC50 PNT2 / mean IC50 H460", "result": 2.67},
      {"measurement": "IC50", "setting": "[4]", "result": "12 ± 0.7", "unit": "µM"},
      {"measurement": "IC50", "setting": "[5]", "result": "6.5 ± 0.4", "unit": "µM"},
      {"measurement": "Selectivity index (SI), A2780", "setting": "[5]; mean IC50 PNT2 / mean IC50 A2780", "result": 1.85},
      {"measurement": "% cell population with high orange fluorescence", "setting": "[6]; Experiment 1", "result": 88.9, "unit": "%"},
      {"measurement": "% cell population with low orange fluorescence", "setting": "[6]; Experiment 1", "result": 11.1, "unit": "%"},
      {"measurement": "% cell population with high orange fluorescence", "setting": "[6]; Experiment 2", "result": 87, "unit": "%"},
      {"measurement": "% cell population with low orange fluorescence", "setting": "[6]; Experiment 2", "result": 13.0, "unit": "%"},
      {"measurement": "% cell population with high orange fluorescence", "setting": "[6]; Experiment 3", "result": 82.1, "unit": "%"},
      {"measurement": "% cell population with low orange fluorescence", "setting": "[6]; Experiment 3", "result": 17.9, "unit": "%"},
      {"measurement": "% cell population with high orange fluorescence", "setting": "[6]; Summary, mean values ± SD", "result": "86 ± 3.5", "unit": "%"}
    ]},
    {"smiles": "Cc1ccc(C(C)C)cc1.[Cl][Ru-]1[O][n+]2ccccc2[S]1", "note": "[[(η^6‐p‐cymene)Ru(pyrithionato)Cl]]", "values": [
      {"measurement": "EC50", "setting": "[7]", "result": "3.81 ± 0.06", "unit": "µM"}
    ]},
    {"smiles": "Cc1ccc(C(C)C)cc1.N#CC1=C(C#N)[S][Ru][S]1", "note": "[Complex 3, [(η^6‐p‐cymene)Ru(Mnt)]]", "values": [
      {"measurement": "IC50", "setting": "[8]", "result": "0.8 ± 0.1", "unit": "µM"},
      {"measurement": "IC50", "setting": "[9]", "result": "0.5 ± 0.04", "unit": "µM"},
      {"measurement": "Toxicity against non-immortalised lymphocytes from healthy individuals", "setting": "[10]", "result": "absence of toxicity"},
      {"measurement": "IC50", "setting": "[11]", "result": "0.32 ± 0.15", "unit": "µM"},
      {"measurement": "Potency relative to cisplatin", "setting": "[12]", "result": "5 to 60", "unit": "×"}
    ]}
  ]
}
